Test results as given in the NIST ThermoML archive (doi:10.1021/je900550v).

Conditions: 101.33 kPa, Liquid; for speed of sound: Sing-around technique in a fixed-path interferometer; for mass density: Vibrating tube method

CC(=O)[O-].C[NH2+]CCO [N-methyl-2-hydroxyethylammonium acetate]
Conditions | mass density [kg/m3] | speed of sound [m/s] | viscosity [mPa·s]
323.15 K | – | – | 29.06
323.16 K | 1085.62 | 1730.3 | –
323.41 K | 1085.46 | 1729.7 | –
323.65 K | 1085.31 | 1729 | –
323.91 K | 1085.15 | 1728.3 | –
324.16 K | 1085 | 1727.7 | –
324.41 K | 1084.84 | 1727 | –
324.65 K | 1084.68 | 1726.4 | –
324.9 K | 1084.53 | 1725.7 | –
325.16 K | 1084.37 | 1725 | –
325.4 K | 1084.22 | 1724.4 | –
325.66 K | 1084.06 | 1723.7 | –
325.9 K | 1083.9 | 1723.1 | –
326.16 K | 1083.75 | 1722.4 | –
326.41 K | 1083.59 | 1721.7 | –
326.66 K | 1083.43 | 1721.1 | –
326.9 K | 1083.28 | 1720.4 | –
327.16 K | 1083.12 | 1719.7 | –
327.4 K | 1082.97 | 1719.1 | –
327.66 K | 1082.81 | 1718.4 | –
327.9 K | 1082.65 | 1717.7 | –
328.15 K | 1082.49 | 1717.1 | –
328.41 K | 1082.34 | 1716.4 | –
328.66 K | 1082.18 | 1715.8 | –
328.9 K | 1082.03 | 1715.1 | –
329.16 K | 1081.87 | 1714.4 | –
329.4 K | 1081.71 | 1713.8 | –
329.65 K | 1081.55 | 1713.1 | –
329.9 K | 1081.4 | 1712.5 | –
330.16 K | 1081.24 | 1711.8 | –
330.41 K | 1081.08 | 1711.1 | –
330.66 K | 1080.92 | 1710.5 | –
330.91 K | 1080.77 | 1709.8 | –
331.16 K | 1080.61 | 1709.1 | –
331.41 K | 1080.45 | 1708.5 | –
331.66 K | 1080.29 | 1707.8 | –
331.91 K | 1080.13 | 1707.1 | –
332.16 K | 1079.97 | 1706.5 | –
332.41 K | 1079.82 | 1705.8 | –
332.66 K | 1079.66 | 1705.1 | –
332.91 K | 1079.5 | 1704.5 | –
333.16 K | 1079.34 | 1703.8 | –
333.41 K | 1079.19 | 1703.1 | –
333.66 K | 1079.03 | 1702.5 | –
333.91 K | 1078.87 | 1701.8 | –
334.16 K | 1078.71 | 1701.2 | –
334.41 K | 1078.55 | 1700.5 | –
334.66 K | 1078.39 | 1699.8 | –
334.91 K | 1078.23 | 1699.2 | –
335.16 K | 1078.08 | 1698.5 | –
335.41 K | 1077.92 | 1697.9 | –
335.66 K | 1077.76 | 1697.2 | –
335.91 K | 1077.6 | 1696.6 | –
336.16 K | 1077.44 | 1696 | –
336.41 K | 1077.28 | 1695.3 | –
336.66 K | 1077.12 | 1694.7 | –
336.9 K | 1076.96 | 1694 | –
337.16 K | 1076.8 | 1693.4 | –
337.4 K | 1076.63 | 1692.8 | –
337.66 K | 1076.47 | 1692.2 | –
337.9 K | 1076.32 | 1691.7 | –
338.15 K | 1076.16 | 1691.3 | –
